pEC50: −log10 of the molar value.
Molecular target: T1, Muscarinic acetylcholine receptor M4 (Rattus norvegicus, UniProt P08485)
T1 sequence (P08485 whole entry): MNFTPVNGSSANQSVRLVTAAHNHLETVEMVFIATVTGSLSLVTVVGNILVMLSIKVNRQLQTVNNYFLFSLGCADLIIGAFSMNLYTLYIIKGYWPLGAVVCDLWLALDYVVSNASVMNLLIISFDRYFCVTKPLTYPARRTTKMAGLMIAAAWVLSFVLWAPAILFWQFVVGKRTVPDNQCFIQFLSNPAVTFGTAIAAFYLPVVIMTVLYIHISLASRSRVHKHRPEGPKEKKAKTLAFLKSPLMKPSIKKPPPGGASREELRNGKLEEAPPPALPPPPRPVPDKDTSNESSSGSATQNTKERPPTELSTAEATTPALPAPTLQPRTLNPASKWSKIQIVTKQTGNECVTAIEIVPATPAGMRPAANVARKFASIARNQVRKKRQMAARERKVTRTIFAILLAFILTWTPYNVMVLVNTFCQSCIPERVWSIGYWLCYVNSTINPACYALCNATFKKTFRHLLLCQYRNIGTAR
Assay: effects on NMS binding at M4, late-stage follow-up, mechanism study for M4 PAM project, biochemical, NMS competition, rat M4 (AID 1939)

Cc1cc(C)c2c(N)c(C(=O)NCc3ccc4c(c3)OCO4)sc2n1 [3-amino-4,6-dimethyl-N-piperonyl-thieno[2,3-b]pyridine-2-carboxamide]
pEC50: > 5.85

— BindingDB's records for doi:10.7270/Q2SN07C4 (Vanderbilt Screening Center for GPCRs, Ion Channels and …, 2009)
